The text below walks through data of ChEMBL document CHEMBL3991601, “The target landscape of clinical kinase drugs” (Science, 2017).

The target in experiment [1] is T1, Ferrochelatase, mitochondrial (Homo sapiens, UniProt P22830).
T1 sequence (P22830 whole entry): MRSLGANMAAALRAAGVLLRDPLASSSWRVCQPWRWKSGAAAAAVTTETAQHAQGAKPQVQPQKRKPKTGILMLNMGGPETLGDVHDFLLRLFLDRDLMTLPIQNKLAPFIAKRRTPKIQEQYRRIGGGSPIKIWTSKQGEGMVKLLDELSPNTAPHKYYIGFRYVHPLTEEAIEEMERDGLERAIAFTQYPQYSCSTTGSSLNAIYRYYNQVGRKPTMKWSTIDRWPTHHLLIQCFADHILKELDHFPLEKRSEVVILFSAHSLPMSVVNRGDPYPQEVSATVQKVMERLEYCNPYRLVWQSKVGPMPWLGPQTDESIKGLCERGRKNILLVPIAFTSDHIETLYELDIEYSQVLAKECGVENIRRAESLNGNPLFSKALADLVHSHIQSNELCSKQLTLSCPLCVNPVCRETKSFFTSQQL

Experiment [2] has as its target Epithelial discoidin domain-containing receptor 1 (Homo sapiens, UniProt Q08345).
Experiment [3] has as its target G protein-coupled receptor kinase 6 (Homo sapiens, UniProt P43250).
In another experiment the target is T2, ADP/ATP translocase 2 (Homo sapiens, UniProt P05141).
T2 sequence (P05141 whole entry): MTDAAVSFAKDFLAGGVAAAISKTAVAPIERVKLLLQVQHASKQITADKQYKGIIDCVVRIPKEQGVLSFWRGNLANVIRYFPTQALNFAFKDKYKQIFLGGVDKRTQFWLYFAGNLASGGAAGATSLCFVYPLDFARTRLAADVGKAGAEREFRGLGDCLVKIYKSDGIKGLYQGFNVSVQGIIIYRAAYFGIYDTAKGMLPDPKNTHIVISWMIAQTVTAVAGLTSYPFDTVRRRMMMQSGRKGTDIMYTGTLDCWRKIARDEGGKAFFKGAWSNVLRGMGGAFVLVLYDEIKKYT

Experiment [4] concerns the target T3, ATP-dependent RNA helicase DHX30 (Homo sapiens, UniProt Q7L2E3).
T3 sequence (Q7L2E3 whole entry): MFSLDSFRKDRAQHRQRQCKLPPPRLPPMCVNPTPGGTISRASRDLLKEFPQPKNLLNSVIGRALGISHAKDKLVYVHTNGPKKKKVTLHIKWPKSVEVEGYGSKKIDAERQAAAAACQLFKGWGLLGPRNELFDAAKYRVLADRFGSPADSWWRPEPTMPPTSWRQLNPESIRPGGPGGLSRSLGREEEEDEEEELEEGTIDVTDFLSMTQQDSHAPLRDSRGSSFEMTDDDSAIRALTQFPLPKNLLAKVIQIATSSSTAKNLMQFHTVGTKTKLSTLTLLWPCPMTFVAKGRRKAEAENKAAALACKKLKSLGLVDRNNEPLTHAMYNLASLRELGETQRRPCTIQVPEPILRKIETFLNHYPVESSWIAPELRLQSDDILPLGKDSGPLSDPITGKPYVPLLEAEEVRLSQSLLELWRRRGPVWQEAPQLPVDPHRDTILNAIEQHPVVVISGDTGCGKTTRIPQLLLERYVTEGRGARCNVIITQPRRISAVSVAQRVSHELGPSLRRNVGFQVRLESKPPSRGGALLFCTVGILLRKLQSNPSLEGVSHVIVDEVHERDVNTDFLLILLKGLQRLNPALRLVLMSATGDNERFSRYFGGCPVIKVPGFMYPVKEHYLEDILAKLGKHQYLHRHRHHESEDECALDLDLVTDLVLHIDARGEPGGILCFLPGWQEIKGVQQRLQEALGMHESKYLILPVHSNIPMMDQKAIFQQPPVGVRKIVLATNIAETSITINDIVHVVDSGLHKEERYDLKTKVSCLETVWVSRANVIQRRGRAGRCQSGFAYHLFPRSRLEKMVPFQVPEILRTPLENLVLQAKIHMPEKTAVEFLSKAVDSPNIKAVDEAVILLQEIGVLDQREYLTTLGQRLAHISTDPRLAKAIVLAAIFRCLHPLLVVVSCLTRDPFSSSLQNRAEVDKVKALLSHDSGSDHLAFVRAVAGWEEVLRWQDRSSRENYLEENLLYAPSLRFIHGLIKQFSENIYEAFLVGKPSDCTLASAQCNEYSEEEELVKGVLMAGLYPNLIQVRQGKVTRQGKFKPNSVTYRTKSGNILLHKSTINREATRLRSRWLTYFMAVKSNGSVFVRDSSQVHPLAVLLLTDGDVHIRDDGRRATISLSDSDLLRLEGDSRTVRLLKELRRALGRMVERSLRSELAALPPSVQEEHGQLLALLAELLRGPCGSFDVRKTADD

In experiment [5] the target is Serine/threonine-protein kinase N1 (Homo sapiens, UniProt Q16512).
Sequence of Serine/threonine-protein kinase N1 (Q16512 whole entry): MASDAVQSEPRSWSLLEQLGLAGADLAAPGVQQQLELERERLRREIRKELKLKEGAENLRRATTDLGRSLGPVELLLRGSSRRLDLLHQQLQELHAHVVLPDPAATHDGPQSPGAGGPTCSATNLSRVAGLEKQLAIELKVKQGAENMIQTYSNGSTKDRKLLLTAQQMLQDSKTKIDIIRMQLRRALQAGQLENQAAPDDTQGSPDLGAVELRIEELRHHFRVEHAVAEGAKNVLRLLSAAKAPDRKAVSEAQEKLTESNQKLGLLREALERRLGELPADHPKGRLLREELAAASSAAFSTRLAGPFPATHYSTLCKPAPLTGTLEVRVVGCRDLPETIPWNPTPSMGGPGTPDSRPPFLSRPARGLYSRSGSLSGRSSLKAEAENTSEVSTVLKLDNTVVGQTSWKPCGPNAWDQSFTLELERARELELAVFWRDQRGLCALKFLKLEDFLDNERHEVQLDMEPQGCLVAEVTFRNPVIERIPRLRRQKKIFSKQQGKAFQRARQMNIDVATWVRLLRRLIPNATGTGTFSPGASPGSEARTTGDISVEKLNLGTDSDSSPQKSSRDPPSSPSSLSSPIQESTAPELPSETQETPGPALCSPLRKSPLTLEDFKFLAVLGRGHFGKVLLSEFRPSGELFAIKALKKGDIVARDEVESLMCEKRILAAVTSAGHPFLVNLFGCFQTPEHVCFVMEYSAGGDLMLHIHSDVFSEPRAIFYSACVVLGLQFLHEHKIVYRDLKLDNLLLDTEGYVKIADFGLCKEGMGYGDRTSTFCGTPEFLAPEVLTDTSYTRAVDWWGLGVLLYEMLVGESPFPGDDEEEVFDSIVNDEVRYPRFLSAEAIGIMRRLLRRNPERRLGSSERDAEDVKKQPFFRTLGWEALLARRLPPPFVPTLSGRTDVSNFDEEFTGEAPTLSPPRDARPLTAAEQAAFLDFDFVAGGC
In experiment [6] the target is Bone morphogenetic protein receptor type-1B (Homo sapiens, UniProt O00238).
Sequence of Bone morphogenetic protein receptor type-1B (O00238 whole entry): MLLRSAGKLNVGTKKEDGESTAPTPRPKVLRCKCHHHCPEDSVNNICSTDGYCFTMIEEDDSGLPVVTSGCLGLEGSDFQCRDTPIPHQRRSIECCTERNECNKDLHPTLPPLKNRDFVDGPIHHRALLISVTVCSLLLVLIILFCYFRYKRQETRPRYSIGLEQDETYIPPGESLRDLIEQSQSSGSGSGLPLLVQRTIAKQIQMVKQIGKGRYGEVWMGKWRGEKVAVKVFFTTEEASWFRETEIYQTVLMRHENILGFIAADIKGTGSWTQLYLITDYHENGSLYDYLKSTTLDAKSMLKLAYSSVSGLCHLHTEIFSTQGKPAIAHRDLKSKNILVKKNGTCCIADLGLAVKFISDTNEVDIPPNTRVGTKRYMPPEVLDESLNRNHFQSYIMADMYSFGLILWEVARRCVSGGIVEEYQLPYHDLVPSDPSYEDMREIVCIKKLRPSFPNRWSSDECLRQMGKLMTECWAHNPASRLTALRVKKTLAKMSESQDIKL
Experiment [7] concerns the target T4, Bifunctional phosphoribosylaminoimidazole carboxylase/phosphoribosylaminoimidazole succinocarboxamide synthetase (Homo sapiens, UniProt P22234).
T4 sequence (P22234 whole entry): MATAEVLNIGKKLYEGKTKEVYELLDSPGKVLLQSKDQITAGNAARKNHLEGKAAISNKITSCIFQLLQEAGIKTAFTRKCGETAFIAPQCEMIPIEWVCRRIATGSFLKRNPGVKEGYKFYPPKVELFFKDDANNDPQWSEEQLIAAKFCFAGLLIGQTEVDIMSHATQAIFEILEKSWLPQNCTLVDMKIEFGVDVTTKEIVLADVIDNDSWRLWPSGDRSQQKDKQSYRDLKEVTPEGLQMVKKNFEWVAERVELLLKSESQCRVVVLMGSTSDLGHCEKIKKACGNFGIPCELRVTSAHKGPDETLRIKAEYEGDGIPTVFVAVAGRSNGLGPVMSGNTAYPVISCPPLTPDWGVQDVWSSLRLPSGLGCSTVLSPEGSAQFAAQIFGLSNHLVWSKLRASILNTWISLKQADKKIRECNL

The target of experiment [8] is Proto-oncogene tyrosine-protein kinase receptor Ret (Homo sapiens, UniProt P07949).
The target in a further experiment is Insulin receptor (Homo sapiens, UniProt P06213).
Sequence of Insulin receptor (P06213 28-758 limits assumed): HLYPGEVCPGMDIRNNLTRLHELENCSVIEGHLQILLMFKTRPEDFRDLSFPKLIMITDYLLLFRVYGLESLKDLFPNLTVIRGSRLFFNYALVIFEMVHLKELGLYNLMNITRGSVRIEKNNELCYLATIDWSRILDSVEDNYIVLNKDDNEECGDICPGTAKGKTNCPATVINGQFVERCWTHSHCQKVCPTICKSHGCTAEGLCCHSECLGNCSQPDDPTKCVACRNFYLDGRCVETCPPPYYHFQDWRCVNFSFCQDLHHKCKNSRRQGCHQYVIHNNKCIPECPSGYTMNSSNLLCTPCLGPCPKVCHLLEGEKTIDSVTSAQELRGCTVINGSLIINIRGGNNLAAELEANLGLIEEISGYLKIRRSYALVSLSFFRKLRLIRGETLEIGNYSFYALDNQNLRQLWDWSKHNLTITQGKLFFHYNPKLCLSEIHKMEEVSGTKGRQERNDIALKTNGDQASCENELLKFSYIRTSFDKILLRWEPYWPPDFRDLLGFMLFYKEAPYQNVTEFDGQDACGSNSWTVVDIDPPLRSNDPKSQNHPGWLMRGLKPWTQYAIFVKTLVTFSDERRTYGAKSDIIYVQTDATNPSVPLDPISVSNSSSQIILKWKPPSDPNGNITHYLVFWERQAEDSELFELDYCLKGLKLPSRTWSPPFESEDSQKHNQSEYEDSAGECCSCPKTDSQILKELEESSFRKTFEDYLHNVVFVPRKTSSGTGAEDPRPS
Sequence of Insulin receptor (P06213 763-1382 limits assumed): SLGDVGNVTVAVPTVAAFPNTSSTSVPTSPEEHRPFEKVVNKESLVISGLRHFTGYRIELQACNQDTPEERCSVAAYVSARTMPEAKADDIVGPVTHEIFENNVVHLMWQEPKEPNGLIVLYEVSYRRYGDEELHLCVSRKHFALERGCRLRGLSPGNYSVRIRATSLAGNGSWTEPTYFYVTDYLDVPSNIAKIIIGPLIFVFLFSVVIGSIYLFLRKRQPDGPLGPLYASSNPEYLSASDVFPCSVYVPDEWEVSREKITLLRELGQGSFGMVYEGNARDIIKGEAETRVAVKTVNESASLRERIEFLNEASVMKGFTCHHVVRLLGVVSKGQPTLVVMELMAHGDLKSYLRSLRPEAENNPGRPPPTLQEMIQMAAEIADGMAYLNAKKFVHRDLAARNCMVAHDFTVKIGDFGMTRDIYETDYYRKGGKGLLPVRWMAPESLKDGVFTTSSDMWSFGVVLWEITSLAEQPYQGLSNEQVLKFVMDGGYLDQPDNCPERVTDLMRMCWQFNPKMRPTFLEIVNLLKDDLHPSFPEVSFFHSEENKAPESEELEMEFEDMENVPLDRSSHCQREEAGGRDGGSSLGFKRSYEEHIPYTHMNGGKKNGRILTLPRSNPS
Experiment [9] addresses Ribosomal protein S6 kinase alpha-4 (Homo sapiens, UniProt O75676).
The target in experiment [10] is Tyrosine-protein kinase Fer (Homo sapiens, UniProt P16591).
Experiment [11] concerns the target Cyclin-dependent kinase 5 (Homo sapiens, UniProt Q00535).

Structures are written as SMILES. Calls of active or inactive are those of the source. Cut-off read from the data, not from the text of the source, for most assays here: actives have a measured Kd and inactives only a lower limit.
Note: in the data inactive means no Kd found up to 30 µM.

Sequence of Cyclin-dependent kinase 5 (Q00535 whole entry): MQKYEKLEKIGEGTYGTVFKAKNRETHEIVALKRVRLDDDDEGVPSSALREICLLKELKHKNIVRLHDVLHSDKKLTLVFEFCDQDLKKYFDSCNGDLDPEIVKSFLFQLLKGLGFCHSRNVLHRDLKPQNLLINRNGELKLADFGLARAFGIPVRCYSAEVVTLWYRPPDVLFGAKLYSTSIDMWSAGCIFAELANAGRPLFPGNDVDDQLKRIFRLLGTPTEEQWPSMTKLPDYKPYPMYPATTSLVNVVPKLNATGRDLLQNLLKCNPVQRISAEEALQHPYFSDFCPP
Sequence of Ribosomal protein S6 kinase alpha-4 (O75676 whole entry): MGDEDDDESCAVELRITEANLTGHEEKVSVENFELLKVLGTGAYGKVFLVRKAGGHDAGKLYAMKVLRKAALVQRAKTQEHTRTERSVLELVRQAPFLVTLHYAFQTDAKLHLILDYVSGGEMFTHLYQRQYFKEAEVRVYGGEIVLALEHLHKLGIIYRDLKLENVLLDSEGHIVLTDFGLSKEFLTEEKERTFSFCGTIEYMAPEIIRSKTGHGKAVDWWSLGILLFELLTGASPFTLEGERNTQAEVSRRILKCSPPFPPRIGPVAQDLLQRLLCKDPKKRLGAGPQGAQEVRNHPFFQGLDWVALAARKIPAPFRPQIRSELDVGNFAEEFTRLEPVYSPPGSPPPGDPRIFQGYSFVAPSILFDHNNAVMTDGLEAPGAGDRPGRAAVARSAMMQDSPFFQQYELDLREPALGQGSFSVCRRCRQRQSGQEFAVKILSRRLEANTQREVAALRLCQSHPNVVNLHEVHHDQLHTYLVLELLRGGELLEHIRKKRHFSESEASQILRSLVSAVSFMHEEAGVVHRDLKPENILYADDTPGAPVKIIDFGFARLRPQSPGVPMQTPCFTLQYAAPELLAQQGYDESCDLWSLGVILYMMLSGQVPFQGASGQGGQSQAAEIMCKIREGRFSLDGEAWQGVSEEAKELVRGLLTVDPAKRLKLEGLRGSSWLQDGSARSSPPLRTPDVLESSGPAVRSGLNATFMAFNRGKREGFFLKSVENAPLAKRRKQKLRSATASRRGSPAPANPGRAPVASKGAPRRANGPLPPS
Sequence of G protein-coupled receptor kinase 6 (P43250 whole entry): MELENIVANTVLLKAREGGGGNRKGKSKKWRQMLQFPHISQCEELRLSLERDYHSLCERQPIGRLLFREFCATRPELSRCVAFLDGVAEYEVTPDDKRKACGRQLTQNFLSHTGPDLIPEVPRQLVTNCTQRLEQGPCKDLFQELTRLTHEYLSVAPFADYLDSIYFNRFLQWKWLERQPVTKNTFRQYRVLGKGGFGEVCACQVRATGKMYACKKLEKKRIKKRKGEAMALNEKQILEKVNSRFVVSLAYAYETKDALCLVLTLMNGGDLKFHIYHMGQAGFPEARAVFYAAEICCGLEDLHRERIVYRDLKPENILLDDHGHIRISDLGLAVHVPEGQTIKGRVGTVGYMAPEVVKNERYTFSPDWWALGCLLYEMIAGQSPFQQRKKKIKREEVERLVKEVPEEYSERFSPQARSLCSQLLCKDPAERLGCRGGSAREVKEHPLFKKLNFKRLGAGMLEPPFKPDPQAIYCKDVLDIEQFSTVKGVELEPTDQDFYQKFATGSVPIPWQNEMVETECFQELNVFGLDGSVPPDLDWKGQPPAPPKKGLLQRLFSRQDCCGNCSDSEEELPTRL

Usually Kd stands for the constant that tells how readily two partners part at equilibrium. Turning to `O=C(Cc1ccc(-c2ccc(OCCN3CCOCC3)cc2)cn1)NCc1ccccc1` [TIRBANIBULIN], the Kd (in [1]; in experiment [2]; in experiment [3]; on ADP/ATP translocase 2; in experiment [4]; in experiment [5]) was > 30 µM (inactive) throughout. The Kd (in [6]; in experiment [7]; in experiment [8]; at Insulin receptor; in experiment [9]; in experiment [10]) was > 30 µM (inactive) each time. In addition, the Kd in experiment [11] is > 30 µM (inactive).

For `Cc1cc(Nc2ncnc3ccc(NC4=NC(C)(C)CO4)cc23)ccc1Oc1ccn2ncnc2c1` [TUCATINIB], the dissociation constant (Kd) in experiment [1] was 3.91 µM (active); in experiment [2] it was > 30 µM (inactive); in experiment [3], > 30 µM (inactive); at ADP/ATP translocase 2, > 30 µM (inactive); in [4], > 30 µM (inactive); in experiment [5], > 30 µM (inactive). For the same compound, the Kd (in [6]; in [7]; in [8]; on Insulin receptor; in experiment [9]; in experiment [10]) was > 30 µM (inactive) in each case. Moreover, in experiment [11], the Kd was > 30 µM (inactive).

Consider `C[C@@H](N)c1ccc(C(=O)Nc2ccnc3[nH]ccc23)cc1` [Y-39983], for which the Kd is > 30 µM (inactive) in experiment [1]; > 30 µM (inactive) in experiment [2]; > 30 µM (inactive) in [3]; > 30 µM (inactive) on ADP/ATP translocase 2; > 30 µM (inactive) in experiment [4]; 0.253 µM (active) in experiment [5]. The Kd (in [6]; in experiment [7]; in [8]; at Insulin receptor; in [9]; in experiment [10]) was > 30 µM (inactive) in each case. The Kd in experiment [11] was > 30 µM (inactive).

In the case of `CN1C/C=C/CCOc2cccc(c2)-c2ccnc(n2)Nc2cccc(c2)C1` [ZOTIRACICLIB], the dissociation constant Kd in [1] was 0.243 µM; in experiment [2], > 30 µM (inactive); in experiment [3], > 30 µM (inactive); on ADP/ATP translocase 2, > 30 µM (inactive); in experiment [4], > 30 µM (inactive); in [5] it was 1.69 µM (active). In addition, the Kd in experiment [6] is > 30 µM (inactive); in experiment [7], > 30 µM (inactive); in experiment [8], 21.9 µM; on Insulin receptor it was > 30 µM (inactive); in experiment [9] it was > 30 µM (inactive); in experiment [10], 1.69 µM. Besides, the Kd in experiment [11] was 0.93 µM (active).
